Assay results from patent US11712434B2, “Compound having anti-cancer effect, and preparation method therefor and use thereof” (3D MEDICINES (BEIJING) CO., LTD., priority 2016, dated 2023).

Tests used:
Assay in all cases: Cell proliferation assay (Alamar Blue)
Assay type in all cases: cell-based
CCRF-CEM = CCRF-CEM tumor cell line, 6 days culture
Summary of the method: (§1)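 Six-day continuous exposure of log-phase cells to a 9-point compound series (3.16-fold steps from 100 or 30 μM). Residual viability was read by AlamarBlue fluorescence at 560/590 nm. IC50 came from four-parameter curve fitting.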

DLD1 = DLD1 tumor cell line, 6 days culture
Summary of the method: as §1

DU145 = DU145 tumor cell line, 6 days culture
Summary of the method: as §1

HCCLM3 = HCCLM3 tumor cell line, 6 days culture
Summary of the method: as §1

HEPG2 = HEPG2 liver cancer cell line, 6 days culture
Summary of the method: as §1

HLE = HLE liver cancer cell line, 6 days culture
Summary of the method: as §1

HT55 = HT55 tumor cell line, 6 days culture
Summary of the method: as §1

HUH6 = HUH6 liver cancer cell line, 6 days culture
Summary of the method: as §1

HUH7 = HUH7 liver cancer cell line, 6 days culture
Summary of the method: as §1

JHH5 = JHH5 liver cancer cell line, 6 days culture
Summary of the method: as §1

K562 = K562 tumor cell line, 6 days culture
Summary of the method: as §1

LNCAP-clone-FGC = LNCAP-clone-FGC tumor cell line, 6 days culture
Summary of the method: as §1

Li-7 = Li-7 liver cancer cell line, 6 days culture
Summary of the method: as §1

MDA-MB-231 = MDA-MB-231 tumor cell line, 6 days culture
Summary of the method: as §1

MDA-MB-435S = MDA-MB-435S tumor cell line, 6 days culture
Summary of the method: as §1

MFM-223 = MFM-223 tumor cell line, 6 days culture
Summary of the method: as §1

MG63 = MG63 tumor cell line, 6 days culture
Summary of the method: as §1

NCI-H2170 = NCI-H2170 tumor cell line, 6 days culture
Summary of the method: as §1

NCI-H526 = NCI-H526 tumor cell line, 6 days culture
Summary of the method: as §1

NCI-H716 = NCI-H716 tumor cell line, 6 days culture
Summary of the method: as §1

SNU354 = SNU354 liver cancer cell line, 6 days culture
Summary of the method: as §1

SNU387 = SNU387 liver cancer cell line, 6 days culture
Summary of the method: as §1

SNU449 = SNU449 liver cancer cell line, 6 days culture
Summary of the method: as §1

SNU475 = SNU475 liver cancer cell line, 6 days culture
Summary of the method: as §1

SW620 = SW620 tumor cell line, 6 days culture
Summary of the method: as §1

TE-15 = TE-15 tumor cell line, 6 days culture
Summary of the method: as §1

## Cc1ccc(F)c(NC(=O)Nc2ccc(-c3cccc4[nH]nc(NC(=O)C[C@H](N)C(=O)N[C@@H](CCC(=O)N[C@@H](CCC(=O)N[C@@H](CCC(=O)N[C@@H](CCC(=O)O)C(=O)O)C(=O)O)C(=O)O)C(=O)O)c34)cc2)c1 [Compound 2]
CCRF-CEM; Homo sapiens, 144 h
  IC50: 10.4 µM
DLD1; Homo sapiens, DLD-1, 144 h
  IC50: 29.2 µM
DU145; Homo sapiens, DU-145, 144 h
  IC50: 9.34 µM
HCCLM3; Homo sapiens, 144 h
  IC50: 12 µM
HEPG2; Homo sapiens, 144 h
  IC50: 3.86 µM
HLE; Homo sapiens, 144 h
  IC50: 6.47 µM
HT55; Homo sapiens, 144 h
  IC50: 40.1 µM
HUH6; Homo sapiens, HuH-6, 144 h
  IC50: 79 µM
HUH7; Homo sapiens, Huh-7, 144 h
  IC50: 6.33 µM
JHH5; 144 h
  IC50: 24.7 µM
K562; Homo sapiens, 144 h
  IC50: 29.5 µM
LNCAP-clone-FGC; Homo sapiens, 144 h
  IC50: 26.5 µM
Li-7; 144 h
  IC50: 19.5 µM
MDA-MB-231; Homo sapiens, 144 h
  IC50: 12.4 µM
MDA-MB-435S; Homo sapiens, 144 h
  IC50: 18.6 µM
MFM-223; Homo sapiens, 144 h
  IC50: 6.93 µM
MG63; Homo sapiens, MG-63, 144 h
  IC50: 5.49 µM
NCI-H2170; Homo sapiens, 144 h
  IC50: 7.69 µM
NCI-H526; Homo sapiens, 144 h
  IC50: 11.3 µM
NCI-H716; Homo sapiens, 144 h
  IC50: 10.8 µM
SNU354; Homo sapiens, SNU-354, 144 h
  IC50: 8.62 µM
SNU387; Homo sapiens, SNU-387, 144 h
  IC50: 47.9 µM
SNU449; Homo sapiens, SNU-449, 144 h
  IC50: 25.7 µM
SNU475; Homo sapiens, SNU-475, 144 h
  IC50: 11.2 µM
SW620; Homo sapiens, SW-620, 144 h
  IC50: 6.81 µM
TE-15; Homo sapiens, 144 h
  IC50: 7.29 µM

## Cc1ccc(F)c(NC(=O)Nc2ccc(-c3cccc4[nH]nc(NC(=O)C[C@H](N)C(=O)N[C@@H](CCC(=O)O)C(=O)O)c34)cc2)c1 [Compound 1]
CCRF-CEM; Homo sapiens, 144 h
  IC50: 6.14 µM
DLD1; Homo sapiens, DLD-1, 144 h
  IC50: 18.5 µM
DU145; Homo sapiens, DU-145, 144 h
  IC50: 4.25 µM
HCCLM3; Homo sapiens, 144 h
  IC50: 8.24 µM
HEPG2; Homo sapiens, 144 h
  IC50: 1.35 µM
HLE; Homo sapiens, 144 h
  IC50: 2.84 µM
HT55; Homo sapiens, 144 h
  IC50: 24.7 µM
HUH6; Homo sapiens, HuH-6, 144 h
  IC50: 52.9 µM
HUH7; Homo sapiens, Huh-7, 144 h
  IC50: 2.89 µM
JHH5; 144 h
  IC50: 16.6 µM
K562; Homo sapiens, 144 h
  IC50: 17.2 µM
LNCAP-clone-FGC; Homo sapiens, 144 h
  IC50: 15.6 µM
Li-7; 144 h
  IC50: 7.29 µM
MDA-MB-231; Homo sapiens, 144 h
  IC50: 7.61 µM
MDA-MB-435S; Homo sapiens, 144 h
  IC50: 10.5 µM
MFM-223; Homo sapiens, 144 h
  IC50: 3.59 µM
MG63; Homo sapiens, MG-63, 144 h
  IC50: 2.34 µM
NCI-H2170; Homo sapiens, 144 h
  IC50: 5.32 µM
NCI-H526; Homo sapiens, 144 h
  IC50: 7.45 µM
NCI-H716; Homo sapiens, 144 h
  IC50: 5.49 µM
SNU354; Homo sapiens, SNU-354, 144 h
  IC50: 3.59 µM
SNU387; Homo sapiens, SNU-387, 144 h
  IC50: 22.3 µM
SNU449; Homo sapiens, SNU-449, 144 h
  IC50: 16.5 µM
SNU475; Homo sapiens, SNU-475, 144 h
  IC50: 4.81 µM
SW620; Homo sapiens, SW-620, 144 h
  IC50: 3.96 µM
TE-15; Homo sapiens, 144 h
  IC50: 2.94 µM

## Cc1ccc(F)c(NC(=O)Nc2ccc(-c3cccc4[nH]nc(NC(=O)CCCCCCCCCCCNC(=O)C[C@H](N)C(=O)N[C@@H](CCC(=O)O)C(=O)O)c34)cc2)c1 [Compound 7]
CCRF-CEM
  IC50: > 100 µM
DLD1
  IC50: > 100 µM
DU145
  IC50: > 100 µM
HCCLM3
  IC50: > 100 µM
HEPG2
  IC50: 9.53 µM
HLE
  IC50: 88.3 µM
HT55
  IC50: > 100 µM
HUH6
  IC50: > 100 µM
HUH7
  IC50: 42.2 µM
JHH5
  IC50: > 100 µM
K562
  IC50: > 100 µM
LNCAP-clone-FGC
  IC50: 95.5 µM
Li-7
  IC50: > 100 µM
MDA-MB-231
  IC50: > 100 µM
MDA-MB-435S
  IC50: > 100 µM
MFM-223
  IC50: 88.3 µM
MG63
  IC50: > 100 µM
NCI-H2170
  IC50: 48 µM
NCI-H526
  IC50: > 100 µM
NCI-H716
  IC50: 41.6 µM
SNU354
  IC50: > 100 µM
SNU387
  IC50: > 100 µM
SNU449
  IC50: > 100 µM
SNU475
  IC50: > 100 µM
SW620
  IC50: 56.3 µM
TE-15
  IC50: > 100 µM
